According to article PMC6158189, “A pharmacological probe identifies cystathionine β-synthase as a new negative regulator for ferroptosis” (Cell Death & Disease, 2018):

Key:
HepG2 cells = assay: colony formation (crystal violet); format: cell-based, human; details: 24 h treatment
Text: Figure S12. CH004 inhibits the proliferation of cells via specifically targeting hCBS. (A-B) Dose-dependent curves of CH004 on the cell viability of CBS-stably-expressed HEK293T (A) or CBS-knockdown cells (B). Percentages of cell viability of CH004 obtained in Figure 4b were fitted to the non-linear equation using GraphPad Prism 5 to get the IC50 values of CH004 in respective cell lines (●, 293T-CBS WT cells; ○, 293T-EV; ▲, 293T-shCBS; △, 293T-shNT). Means ± SDs (n=3). […] HEK293T cells stably expressing of the lentiviral shRNA targeting CBS (shCBS) or control shRNA (shNT) were seeded at the density of ~ 3,000 cells per well in 96-well plates and the cell images in the bright field were acquired at indicated times by Image Xpress Micro® XLS (Molecular Devices, Sunnyvale, CA) under 10 × objective lens. Representative images of two independent experiments (n = 6 for each experiment) are shown in C. The cell numbers of images under 4 × objective lens of one representative experiment were calculated by Image Xpress Software and the data is shown in D. Means ± SDs (n=6). […] HepG2 cells were seeded in a 96-well plate at a density of 20000 cells per well and cultured for 24 h before treatment with indicated concentrations of CH004 for another 24 h. The colonies were stained with crystal violet and quantified by measuring the absorbance at 590 nm. […] Means ± SDs (n=3). […]

hCBS Q222A = target: T1, hCBS Q222A (Homo sapiens, UniProt P35520, Q222A); assay: purified hCBS mutant enzyme assay; format: biochemical
T1 construct: hCBS-413 (a C-terminal truncated hCBS 1–413); GST (N); made in house; host or cells: E. coli BL21
T1 sequence (P35520 1-413 Q222A): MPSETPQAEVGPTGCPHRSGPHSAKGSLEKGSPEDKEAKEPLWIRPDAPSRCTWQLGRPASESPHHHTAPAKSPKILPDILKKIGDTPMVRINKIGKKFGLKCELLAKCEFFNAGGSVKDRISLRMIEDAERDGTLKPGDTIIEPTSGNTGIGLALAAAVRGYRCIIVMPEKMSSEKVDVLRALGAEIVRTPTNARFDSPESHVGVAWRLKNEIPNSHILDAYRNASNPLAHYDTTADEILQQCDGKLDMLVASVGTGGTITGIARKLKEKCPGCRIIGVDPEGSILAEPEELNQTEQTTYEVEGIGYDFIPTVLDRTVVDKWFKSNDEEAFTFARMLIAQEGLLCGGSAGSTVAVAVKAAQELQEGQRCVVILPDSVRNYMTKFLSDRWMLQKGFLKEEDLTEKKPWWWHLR
Description: (§1) The IC50 values of CH004 for hCBS-413, hCBS-413 mutants, hCBS-FL, hCSE or hDDC were determined according to the standard assay conditions otherwise indicated.
Figure S6. […] HEK293T cells stably expressing CBS Q222A mutant (293T-CBS Q222A) were treated with 0 (DMSO control), 5 or 10 μM CH004 for 8 h before staining with the AzMC to detect H2S. The overlaid images of fluorescent and bright-field images are shown in the left panel, and the corresponding fluorescent (blue, H2S) and bright-field images are shown in the middle and right panels, respectively. Bars: 50 μm. [picture] Figure S7. The CH004-insensitive CBS Q222A mutant can be inhibited by HA. (A) HEK293T cells stably expressing CBS Q222A mutant (293T-CBS Q222A) were treated with 0 (DMSO, control), 5 or 10 μM of CH004, 1 mM or 2 mM of HA for 8 h before staining with the AzMC to detect H2S. The overlaid images of fluorescent and bright-field images are shown in the upper panel, and the corresponding fluorescent (blue, H2S) and bright-field images are shown in the middle and lower panels, respectively. Bars: 50 μm. (B) Quantification of the mean fluorescent density of H2S (blue). The intensity of blue light of the fluorescent images was quantified by ImageJ software, quantified and deduced the background signal in HEK293T-EV cells (Supplementary Figure S3B), normalized by the corresponding cell area and expressed as percentages of control (DMSO group, 100%). Means ± SDs (n=3). One-way ANOVA with Bonferroni post-tests was used for the analysis. *, p< 0.05; **, p< 0.01; n.s. no significance. The images are one representative from three independent experiments. (C) The inhibitory effect of 1 mM HA on purified CBS Q222A mutant. The assay was performed using 60 mM Cys and 1.2 μM CBS-413 Q222A mutant. The data were expressed as percentages of control (DMSO, 100%). Means ± SDs (n=4). [picture]
Table S2. Inhibitory effects of CH004 on hCBS WT and mutants.

[1] = target: T2, human dopa decarboxylase (hDDC) (Homo sapiens, UniProt P20711); assay: purified hDDC enzyme assay; format: biochemical
T2 construct: made in house
T2 sequence (P20711 whole entry): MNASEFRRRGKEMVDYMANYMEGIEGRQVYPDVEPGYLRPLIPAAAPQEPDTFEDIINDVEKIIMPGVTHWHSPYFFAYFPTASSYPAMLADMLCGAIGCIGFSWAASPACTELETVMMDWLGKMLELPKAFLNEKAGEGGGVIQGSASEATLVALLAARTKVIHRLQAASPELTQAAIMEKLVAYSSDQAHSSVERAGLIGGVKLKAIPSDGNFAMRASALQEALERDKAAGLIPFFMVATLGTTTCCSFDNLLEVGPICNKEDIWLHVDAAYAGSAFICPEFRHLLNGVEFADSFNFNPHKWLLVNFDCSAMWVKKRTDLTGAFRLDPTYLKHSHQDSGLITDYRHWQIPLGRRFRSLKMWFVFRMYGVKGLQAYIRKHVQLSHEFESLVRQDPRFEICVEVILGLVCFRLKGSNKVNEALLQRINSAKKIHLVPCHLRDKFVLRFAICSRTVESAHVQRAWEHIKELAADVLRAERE
Description: as §1

What does the source list for `Cn1nc(Cc2ccccc2)nc2c(=O)n(C)c(=O)nc1-2` [CH004, 3-benzyl-1,6-dimethylpyrimido[5,4-e][1,2,4]triazine-5,7(1H,6H)-dione]?
IC50 (HepG2 cells): ~8 µM; IC50 (HepG2 cells; Homo sapiens, HepG2, 24 h): ~7.9 µM; IC50 (hCBS Q222A): 27.6 ± 0.9 µM; IC50 fold to WT, Q222A (hCBS Q222A): 23; Fold selectivity hDDC vs hCBS-413 ([1]; IC50 of hDDC / IC50 of hCBS-413): > 400 (> 400) fold; IC50 ([1]; standard conditions): > 400 µM
